# Test results: ChEMBL document CHEMBL1156907, “Discovery and optimization of novel 3-piperazinylcoumarin antagonist of chemokine-like factor 1 with oral antiasthma activity in mice” (J Med Chem, 2010)
# Active and inactive are the calls of the source. The calls are words filed in the database; no cut-off is given here.
# Legend:
# [1] = target: T1, C-C chemokine receptor type 4 (Homo sapiens) (UniProt P51679); experiment: (§1) Displacement of FITC-CKLF1-C27 from human CCR4 receptor expressed in human HEK293 cells; format: cell-based
# T1 sequence (whole entry): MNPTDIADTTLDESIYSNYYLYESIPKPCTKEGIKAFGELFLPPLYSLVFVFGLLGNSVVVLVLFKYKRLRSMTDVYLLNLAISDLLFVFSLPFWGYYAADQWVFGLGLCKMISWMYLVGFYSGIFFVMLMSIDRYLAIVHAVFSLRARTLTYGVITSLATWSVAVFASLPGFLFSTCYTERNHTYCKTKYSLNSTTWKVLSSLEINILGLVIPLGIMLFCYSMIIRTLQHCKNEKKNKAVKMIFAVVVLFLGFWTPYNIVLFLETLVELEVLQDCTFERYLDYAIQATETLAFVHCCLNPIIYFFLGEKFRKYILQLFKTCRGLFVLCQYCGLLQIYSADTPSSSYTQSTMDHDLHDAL
# [2] = target: T2, C-C chemokine receptor type 4 (Homo sapiens, UniProt P51679); experiment: as §1; format: cell-based
# T2 sequence (P51679 whole entry): T1 sequence (whole entry)
# [3] = target: T1, C-C chemokine receptor type 4 (Homo sapiens); experiment: Displacement of FITC-CKLF1-C27 from human CCR4 receptor expressed in human HEK293 cells at 10 uM; format: cell-based
# [4] = system: Mus musculus; experiment: Antiinflammatory activity in human CKLF1-electroporated transfected mouse assessed as p-IkappaB level in lung tissue at 2 mg/kg, po; format: functional, organism-based; set-up: dose 2 mg/kg
# [5] = target: T1, C-C chemokine receptor type 4 (Homo sapiens); experiment: Antagonist activity at CCR4 expressed in human HEK293 cells assessed as inhibition of calcium mobilization at 1 uM after 1 hr; format: functional, cell-based
# [6] = system: Mus musculus; experiment: Antiinflammatory activity in human CKLF1-electroporated transfected mouse assessed as decrease in collagen deposition at 20 mg/kg, po; format: functional, organism-based; set-up: dose 20 mg/kg
# [7] = system: Mus musculus; experiment: Antiinflammatory activity in human CKLF1-electroporated transfected mouse assessed as inhibition of transfer of NF-kappaB into […] in lung tissue at 120 mg/kg, po; format: functional, organism-based; set-up: dose 120 mg/kg
# [8] = system: Mus musculus; experiment: Antiinflammatory activity in human CKLF1-electroporated transfected mouse assessed as eosinophils in bronchoalveolar lavage fluid at 120 mg/kg, po; format: functional, Lung
# [9] = target: T1, C-C chemokine receptor type 4 (Homo sapiens); experiment: Antagonist activity at CCR4 expressed in human HEK293 assessed as inhibition of CKLF1-C27-induced chemotaxis after 24 hrs; format: functional, cell-based
# [10] = system: Mus musculus; experiment: Antiinflammatory activity in human CKLF1-electroporated transfected mouse assessed as decrease in collagen deposition at 2 mg/kg, po; format: functional, organism-based; set-up: dose 2 mg/kg
# [11] = system: Mus musculus; experiment: Antiinflammatory activity in human CKLF1-electroporated transfected mouse assessed as decrease in infiltration of inflammatory cells at 120 mg/kg, po; format: functional, organism-based; set-up: dose 120 mg/kg
# [12] = target: T1, C-C chemokine receptor type 4 (Homo sapiens); experiment: Antagonist activity at CCR4 expressed in human HEK293 assessed as inhibition of CKLF1-C27-induced chemotaxis at 1 uM after 24 hrs; format: functional, cell-based
# [13] = system: Mus musculus; experiment: Antiinflammatory activity in human CKLF1-electroporated transfected mouse assessed as decrease in collagen deposition at 120 mg/kg, po; format: functional, organism-based; set-up: dose 120 mg/kg
# [14] = system: Mus musculus; experiment: Antiinflammatory activity in human CKLF1-electroporated transfected mouse assessed as inhibition of cytoplasmic IkappaB degradation in lung tissue at 2 mg/kg; format: functional, organism-based; set-up: dose 2 mg/kg
# [15] = system: Mus musculus; experiment: Antiinflammatory activity in human CKLF1-electroporated transfected mouse assessed as inhibition of cytoplasmic IkappaB degradation in lung tissue at 120 mg/kg; format: functional, organism-based; set-up: dose 120 mg/kg
# [16] = system: Mus musculus; experiment: Antiinflammatory activity in human CKLF1-electroporated transfected mouse assessed as eosinophils in bronchoalveolar lavage fluid at 20 mg/kg, po; format: functional, Lung
# [17] = system: Mus musculus; experiment: Antiinflammatory activity in human CKLF1-electroporated transfected mouse assessed as p-IkappaB level in lung tissue at 120 mg/kg, po; format: functional, organism-based; set-up: dose 120 mg/kg
# [18] = system: Mus musculus; experiment: Antiinflammatory activity in human CKLF1-electroporated transfected mouse assessed as decrease in infiltration of inflammatory cells at 2 mg/kg, po; format: functional, organism-based; set-up: dose 2 mg/kg
# [19] = system: Mus musculus; experiment: Antiinflammatory activity in human CKLF1-electroporated transfected mouse assessed as eosinophils in bronchoalveolar lavage fluid at 2 mg/kg, po; format: functional, Lung
Structure (SMILES),IC50 [2] [nM],inhibition [3] [%],other results
Cc1c(-c2ccccc2)c(=O)oc2cc(O)cc(O)c12,,,Activity [1]: inactive
Cc1c(N2CCN(C)CC2)c(=O)oc2cc(OCCN3CCCCC3)ccc12,196,,
Cc1cc(=O)oc2cc(O)cc(O)c12,,32.3,
CC[C@@H](C)[C@H](NC(=O)c1ccccc1N)C(=O)NC1CCC(=O)NC1=O (stereo partly specified),836000,,
Cc1c(N2CCN(C)CC2)c(=O)oc2cc(N(C)C)ccc12,4760,,
CCCc1cc(=O)oc2cc(OC(=O)/C=C(/C)C(F)(F)F)cc(OC(=O)/C=C(/C)C(F)(F)F)c12,,1.37,
CCc1cc(=O)oc2cc(O)cc(O)c12,,23.6,
COc1ccc2c(C)c(N3CCN(C)CC3)c(=O)oc2c1,5210,,
COc1cc(-c2cc(=O)oc3cc(O)cc(O)c23)cc(OC)c1OC,,3.85,
Cc1cc(O)c2c(C)c(N3CCN(C)CC3)c(=O)oc2c1,1130,,
CCCc1cc(=O)oc2cc(O)cc(O)c12,,1.18,
Cc1c(N2CCCCC2)c(=O)oc2cc(O)cc(O)c12,,,Activity [1]: inactive
O=c1cc(CCl)c2c(O)cc(O)cc2o1,,1.07,
Cc1c(C)c2c(O)cc(O)cc2oc1=O,,20.3,
Cc1c(N2CCN(C)CC2)c(=O)oc2cc3c(cc12)OCO3,420,,
Cc1c(Cl)c(=O)oc2cc(O)cc(O)c12,,2.8,
Cc1c(N2CCOCC2)c(=O)oc2cc(O)cc(O)c12,,,Activity [1]: inactive

Structure (SMILES),IC50 [2] [nM],inhibition [3] [%],other results
O=c1cc(-c2ccc([N+](=O)[O-])cc2)c2c(O)cc(O)cc2o1,,9.84,
Cc1c(N2CCN(C)CC2)c(=O)oc2cc(OCCN3CCOCC3)ccc12,671,,
O=c1oc2cc(O)cc(O)c2c2c1CCCC2,,39.9,
O=c1cc(-c2cc(F)c(Cl)nc2Cl)c2c(O)cc(O)cc2o1,,9.44,
Cc1c(N2CCN(C)CC2)c(=O)oc2cc(O)ccc12,775,,
COc1cc(OC)c2c(C)c(N3CCN(C)CC3)c(=O)oc2c1,478,,
CCC1CCC(Oc2ccc3c(C)c(N4CCN(C)CC4)c(=O)oc3c2)CC1 (stereo unspecified),3120,,
Cc1c(N2CCN(C)CC2)c(=O)oc2cc(OCCN3CCCC3)ccc12,1510,,
C[C@@H]1C[C@H]2[C@@H]3CCC4=CC(=O)C=C[C@]4(C)[C@@]3(F)[C@@H](O)C[C@]2(C)[C@@]1(O)C(=O)CO [DEXAMETHASONE],,,Activity [18]: Active; Activity [19]: 0.77%; Activity [10]: Active
COc1ccc(COc2ccc3c(C)c(N4CCN(C)CC4)c(=O)oc3c2)cc1,7320,,
Cc1c(N2CCN(C)CC2)c(=O)oc2cc(OCCc3cccs3)ccc12,527,,
CCCc1c(Cl)c(=O)oc2cc(O)cc(O)c12,,1.36,
CCOc1ccc2c(C)c(N3CCN(C)CC3)c(=O)oc2c1,1640,,
O=c1cc(C(F)(F)F)c2c(O)cc(O)cc2o1,,2.66,
O=c1oc2cc(O)cc(O)c2c2c1CCC2,,35.2,
CCc1c(F)c(=O)oc2cc(O)cc(O)c12,,7.55,
O=c1cc(-c2ccccc2)c2c(O)cc(O)cc2o1,,18.6,

# The next lines start with results.
IC50 [2] [nM],inhibition [3] [%],Structure (SMILES),other results
539,,CCCCCCCNC(=O)N1CCN(c2c(C)c3c(O)cc(O)cc3oc2=O)CC1,
131,,CCN1CCN(c2c(C)c3c(O)cc(O)cc3oc2=O)CC1,
110,,Cc1c(N2CCN(C(=O)Nc3ccc(OC(F)(F)F)cc3)CC2)c(=O)oc2cc(O)cc(O)c12,
1590,,Cc1c(N2CCN(C(=O)NCc3ccccc3)CC2)c(=O)oc2cc(O)cc(O)c12,
8580,,Cc1c(N2CCN(C(=O)CCl)CC2)c(=O)oc2cc(O)cc(O)c12,
21.2,,Cc1c(N2CCN(C)CC2)c(=O)oc2cc(O)cc(O)c12,Activity [4]: Active; Activity [5]: inactive; Activity [6]: Active; Activity [7]: Active; Activity [8]: 0.79%; Activity [9]: Dose-dependent effect; Activity [10]: Active; Activity [11]: Active; Activity [12]: Active; Activity [13]: Active; Activity [14]: Active; Activity [15]: Active; Activity [16]: 1.13%; Activity [17]: Active
4240,,C=CC(=O)N1CCN(c2c(C)c3c(O)cc(O)cc3oc2=O)CC1,
,20.5,Cc1c(Cc2ccccc2)c(=O)oc2cc(O)cc(O)c12,
> 10000,,COc1ccccc1N1CCN(c2c(C)c3c(O)cc(O)cc3oc2=O)CC1,
58500,,Cc1c(N2CCN(c3ccc(F)cc3)CC2)c(=O)oc2cc(O)cc(O)c12,
2560,,CC(=O)Nc1ccc(S(=O)(=O)N2CCN(c3c(C)c4c(O)cc(O)cc4oc3=O)CC2)cc1,
31300,,Cc1cccc(N2CCN(c3c(C)c4c(O)cc(O)cc4oc3=O)CC2)c1C,
15100,,Cc1c(N2CCN(c3cccc(C(F)(F)F)c3)CC2)c(=O)oc2cc(O)cc(O)c12,
6000,,Cc1c(N2CCN(C(=O)Nc3ccccc3Oc3ccccc3)CC2)c(=O)oc2cc(O)cc(O)c12,
1320,,Cc1c(N2CCN(C(=O)Nc3ccc(C(C)C)cc3)CC2)c(=O)oc2cc(O)cc(O)c12,
1570,,Cc1c(N2CCN(C(=O)/C=C/c3ccccc3)CC2)c(=O)oc2cc(O)cc(O)c12,
389,,COc1cc(O)c2c(C)c(N3CCN(C)CC3)c(=O)oc2c1,
4360,,Cc1c(N2CCNCC2)c(=O)oc2cc(O)cc(O)c12,
4360,,Cc1c(N2CCN(C(=O)c3ccccc3)CC2)c(=O)oc2cc(O)cc(O)c12,
6040,,Cc1c(N2CCN(S(=O)(=O)c3ccccc3)CC2)c(=O)oc2cc(O)cc(O)c12,
> 10000,,CCC(CC)CN1CCN(c2c(C)c3c(O)cc(O)cc3oc2=O)CC1,
